Results from ChEMBL document CHEMBL1201862, “PubChem BioAssay data set” (2004).
Values belong to the compound of their own block, whether it stands above or below them. Activity calls are given as the source filed them.

Columns and labels:
[1] = target: Intestinal-type alkaline phosphatase (Homo sapiens, UniProt P09923); test: inhibition of human intestinal alkaline phosphatase – biochemical, dose response (AID 488876); format: functional
[2] = target: DNA dC->dU-editing enzyme APOBEC-3G (Homo sapiens, UniProt Q9HC16); test: Dose Response confirmation of small molecule APOBEC3G DNA Deaminase Inhibitors via a fluorescence-based single-stranded DNA deaminase assay. [Related pubchem assays (depositor defined):AID493012, AID493028]; format: functional
Large T antigen = Large T antigen (Simian virus 40, UniProt P03070); format: functional, Betapolyomavirus macacae;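 further: Confirmatory-stage PubChem screen for compounds that inhibit SV40 T antigen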
[3] = target: Runt-related transcription factor 1/Core-binding factor subunit beta (Homo sapiens, UniProt Q01196+Q13951); test: inhibitors of RUNX1 Runt–CBFb-SMMHC binding, biochemical, TR-FRET (AID 1438); format: protein assay
[4] = target: T1, Ubiquitin-conjugating enzyme E2 N (Homo sapiens, UniProt P61088); format: functional;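 further: Dose-response confirmation in a TR-FRET assay detecting UBC13-driven polyubiquitin chain formation, inhibition measured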
T1 sequence (P61088 whole entry): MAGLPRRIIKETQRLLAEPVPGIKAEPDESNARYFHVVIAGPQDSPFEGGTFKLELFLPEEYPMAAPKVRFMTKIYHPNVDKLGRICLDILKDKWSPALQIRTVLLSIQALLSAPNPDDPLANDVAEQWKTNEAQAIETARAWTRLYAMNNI

[5] = target: T2, Dual specificity protein phosphatase 6 (Rattus norvegicus, UniProt Q64346);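 further: in vitro confirmatory secondary MKP-3 assay designed to detect irreversible or slow-binding inhibitors; recombinant His-tagged rat MKP-3 acting on the substrate OMFP; inhibitor potency from reduced phosphatase rate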
T2 sequence (Q64346 whole entry): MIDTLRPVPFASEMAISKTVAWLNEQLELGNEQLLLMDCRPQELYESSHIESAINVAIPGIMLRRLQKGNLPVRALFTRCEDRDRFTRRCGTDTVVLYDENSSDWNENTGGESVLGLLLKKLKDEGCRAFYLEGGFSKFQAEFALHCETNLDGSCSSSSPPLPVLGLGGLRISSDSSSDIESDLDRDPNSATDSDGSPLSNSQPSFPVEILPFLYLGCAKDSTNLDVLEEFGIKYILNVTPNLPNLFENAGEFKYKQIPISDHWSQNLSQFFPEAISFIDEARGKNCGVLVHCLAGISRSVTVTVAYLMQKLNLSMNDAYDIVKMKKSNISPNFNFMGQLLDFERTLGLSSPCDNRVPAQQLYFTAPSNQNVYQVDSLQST

[6] = target: Voltage-gated N-type calcium channel alpha-1B subunit/Amyloid beta A4 precursor protein-binding family A member 1 (Homo sapiens, UniProt Q00975+Q02410); format: protein assay
Bcl-2-related protein A1 = target: T3, Bcl-2-related protein A1 (Mus musculus, UniProt Q07440); format: functional;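 further: confirmatory dose–response counterscreen on Bfl-1, used to check hits from a UBC13 polyubiquitin inhibitor campaign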
T3 sequence (Q07440 whole entry): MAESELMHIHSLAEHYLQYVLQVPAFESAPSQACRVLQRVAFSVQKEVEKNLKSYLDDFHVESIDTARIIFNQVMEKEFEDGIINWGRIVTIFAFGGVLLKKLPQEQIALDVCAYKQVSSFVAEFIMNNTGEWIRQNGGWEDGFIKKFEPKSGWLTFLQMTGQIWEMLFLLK

[7] = target: Glycogen synthase kinase-3 beta (Homo sapiens, UniProt P49841); format: functional;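 further: value comes from a broad kinome profiling panel, with GSK3B as the panel member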
[8] = target: Dual specificity mitogen-activated protein kinase kinase 2 (Homo sapiens, UniProt P36507); test: Navigating the Kinome. Panel member name: MAP2K2; format: functional
[9] = target: Serine/threonine-protein kinase TBK1 (Homo sapiens, UniProt Q9UHD2); test: Navigating the Kinome. Panel member name: TBK1; format: functional
[10] = target: Platelet-derived growth factor receptor beta (Homo sapiens, UniProt P09619); format: functional;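 further: value comes from a kinome panel, with PDGFRB tested as one panel member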
[11] = target: Heat shock protein HSP 90-alpha (Homo sapiens, UniProt P07900); test: Luminescence-based dose response biochemical high throughput screening assay for inhibitors of the Heat Shock Protein 90 (HSP90). [Related pubchem assays: 1831 (Summary AID.), 1846 (Confirmation screen.), 1789 (Primary screen.)]
Beta-galactosidase = Beta-galactosidase (Escherichia coli, UniProt Q8VNN2); test: beta-galactosidase enzyme inhibitors and activators, dose response, artefact control for CCR6 antagonist project, biochemical, E. coli enzyme, set 3 (AID 504712); format: functional
[12] = target: T4, Heat shock factor protein 1 (Mus musculus, UniProt P38532); test: inhibition of MG132-induced HSE-luciferase signal, confirmation, cell-based, NIH3T3, luminescence, dose retest (AID 2382); format: functional;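 further: NIH3T3 fibroblasts with HSF1-driven luciferase reporter stressed by proteasome inhibitor MG132; luminescence from HSF1-driven luciferase expression after 8 hours of MG132 stress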
T4 sequence (P38532 whole entry): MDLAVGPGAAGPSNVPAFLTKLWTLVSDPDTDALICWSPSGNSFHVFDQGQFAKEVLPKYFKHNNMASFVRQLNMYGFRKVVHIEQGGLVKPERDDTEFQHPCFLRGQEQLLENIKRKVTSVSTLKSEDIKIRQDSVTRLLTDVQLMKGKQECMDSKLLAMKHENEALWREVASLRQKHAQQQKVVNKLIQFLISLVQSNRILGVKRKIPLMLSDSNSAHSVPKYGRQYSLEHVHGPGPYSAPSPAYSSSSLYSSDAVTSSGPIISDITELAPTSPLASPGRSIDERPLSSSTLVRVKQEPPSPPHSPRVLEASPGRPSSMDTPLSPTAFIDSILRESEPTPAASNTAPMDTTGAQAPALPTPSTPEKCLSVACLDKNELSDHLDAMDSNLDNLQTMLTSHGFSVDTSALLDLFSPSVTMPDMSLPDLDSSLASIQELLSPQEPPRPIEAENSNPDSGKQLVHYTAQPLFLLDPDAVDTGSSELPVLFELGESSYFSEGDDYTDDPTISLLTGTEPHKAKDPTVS

[13] = target: C-C chemokine receptor type 6 (Homo sapiens, UniProt P51684); test: CCR6 receptor antagonists, dose response, cell-based, luminescent beta-arrestin readout (AID 504728); format: functional
[14] = target: Rho-associated protein kinase 2 (Homo sapiens, UniProt O75116); format: functional
SRSF protein kinase 1 = SRSF protein kinase 1 (Homo sapiens, UniProt Q96SB4); format: functional;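 further: measured as one member of a kinome-wide kinase profiling panel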
Ephrin type-A receptor 2 = Ephrin type-A receptor 2 (Homo sapiens, UniProt P29317); format: functional;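 further: EPHA2 tested as one member of a kinome-wide kinase panel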
[15] = target: Inhibitor of nuclear factor kappa-B kinase subunit beta (Homo sapiens, UniProt O14920); format: functional
[16] = target: MAP/microtubule affinity-regulating kinase 4 (Homo sapiens, UniProt Q96L34); test: Navigating the Kinome. Panel member name: MARK4; format: functional
[17] = target: Casein kinase I isoform gamma-1 (Homo sapiens, UniProt Q9HCP0); format: functional;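 further: measured as the CSNK1G1 member of a kinome profiling panel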
[18] = target: Serine/threonine-protein kinase SIK2 (Homo sapiens, UniProt Q9H0K1); test: Navigating the Kinome. Panel member name: SIK2; format: functional
[19] = target: Calcium/calmodulin-dependent protein kinase type II subunit gamma (Homo sapiens, UniProt Q13555); format: functional

Sequence of Dual specificity mitogen-activated protein kinase kinase 2 (P36507 whole entry): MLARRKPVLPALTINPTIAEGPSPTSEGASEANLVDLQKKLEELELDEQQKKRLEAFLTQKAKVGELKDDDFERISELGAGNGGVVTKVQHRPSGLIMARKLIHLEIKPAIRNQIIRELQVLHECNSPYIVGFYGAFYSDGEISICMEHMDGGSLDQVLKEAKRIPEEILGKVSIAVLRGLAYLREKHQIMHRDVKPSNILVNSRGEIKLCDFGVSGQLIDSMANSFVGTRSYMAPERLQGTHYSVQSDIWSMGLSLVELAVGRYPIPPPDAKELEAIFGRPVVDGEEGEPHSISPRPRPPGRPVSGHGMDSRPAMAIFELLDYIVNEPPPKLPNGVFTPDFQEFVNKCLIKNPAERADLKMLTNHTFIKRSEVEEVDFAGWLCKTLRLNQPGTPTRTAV
Sequence of Beta-galactosidase (Q8VNN2 whole entry): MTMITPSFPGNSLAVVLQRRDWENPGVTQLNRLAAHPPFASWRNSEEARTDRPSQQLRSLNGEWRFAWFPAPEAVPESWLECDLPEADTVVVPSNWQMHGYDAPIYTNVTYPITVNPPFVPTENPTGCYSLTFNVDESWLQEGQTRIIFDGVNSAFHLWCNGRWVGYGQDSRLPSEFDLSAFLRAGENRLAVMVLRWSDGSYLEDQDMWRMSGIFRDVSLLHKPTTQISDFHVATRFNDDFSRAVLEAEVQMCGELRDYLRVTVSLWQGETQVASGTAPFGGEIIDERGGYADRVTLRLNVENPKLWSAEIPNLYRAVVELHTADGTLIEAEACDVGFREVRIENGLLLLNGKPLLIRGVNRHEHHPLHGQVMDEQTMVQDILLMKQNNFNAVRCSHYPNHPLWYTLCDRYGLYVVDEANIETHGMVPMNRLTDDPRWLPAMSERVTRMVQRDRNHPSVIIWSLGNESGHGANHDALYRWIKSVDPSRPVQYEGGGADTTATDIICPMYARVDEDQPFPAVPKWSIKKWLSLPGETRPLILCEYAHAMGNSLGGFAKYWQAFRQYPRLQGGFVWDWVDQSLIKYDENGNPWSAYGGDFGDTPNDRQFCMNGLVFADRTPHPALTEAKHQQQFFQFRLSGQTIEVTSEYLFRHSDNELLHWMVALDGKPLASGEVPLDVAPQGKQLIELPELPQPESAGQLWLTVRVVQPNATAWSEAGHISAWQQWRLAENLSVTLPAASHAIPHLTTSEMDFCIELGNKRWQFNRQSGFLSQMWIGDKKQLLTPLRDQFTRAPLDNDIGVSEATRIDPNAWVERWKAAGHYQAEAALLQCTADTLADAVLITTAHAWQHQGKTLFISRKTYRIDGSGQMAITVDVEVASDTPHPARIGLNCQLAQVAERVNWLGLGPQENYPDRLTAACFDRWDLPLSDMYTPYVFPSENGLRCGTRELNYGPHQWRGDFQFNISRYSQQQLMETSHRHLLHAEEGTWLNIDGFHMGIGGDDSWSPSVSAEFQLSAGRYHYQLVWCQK
Sequence of Voltage-gated N-type calcium channel alpha-1B subunit/Amyloid beta A4 precursor protein-binding family A member 1 (Q00975 whole entry): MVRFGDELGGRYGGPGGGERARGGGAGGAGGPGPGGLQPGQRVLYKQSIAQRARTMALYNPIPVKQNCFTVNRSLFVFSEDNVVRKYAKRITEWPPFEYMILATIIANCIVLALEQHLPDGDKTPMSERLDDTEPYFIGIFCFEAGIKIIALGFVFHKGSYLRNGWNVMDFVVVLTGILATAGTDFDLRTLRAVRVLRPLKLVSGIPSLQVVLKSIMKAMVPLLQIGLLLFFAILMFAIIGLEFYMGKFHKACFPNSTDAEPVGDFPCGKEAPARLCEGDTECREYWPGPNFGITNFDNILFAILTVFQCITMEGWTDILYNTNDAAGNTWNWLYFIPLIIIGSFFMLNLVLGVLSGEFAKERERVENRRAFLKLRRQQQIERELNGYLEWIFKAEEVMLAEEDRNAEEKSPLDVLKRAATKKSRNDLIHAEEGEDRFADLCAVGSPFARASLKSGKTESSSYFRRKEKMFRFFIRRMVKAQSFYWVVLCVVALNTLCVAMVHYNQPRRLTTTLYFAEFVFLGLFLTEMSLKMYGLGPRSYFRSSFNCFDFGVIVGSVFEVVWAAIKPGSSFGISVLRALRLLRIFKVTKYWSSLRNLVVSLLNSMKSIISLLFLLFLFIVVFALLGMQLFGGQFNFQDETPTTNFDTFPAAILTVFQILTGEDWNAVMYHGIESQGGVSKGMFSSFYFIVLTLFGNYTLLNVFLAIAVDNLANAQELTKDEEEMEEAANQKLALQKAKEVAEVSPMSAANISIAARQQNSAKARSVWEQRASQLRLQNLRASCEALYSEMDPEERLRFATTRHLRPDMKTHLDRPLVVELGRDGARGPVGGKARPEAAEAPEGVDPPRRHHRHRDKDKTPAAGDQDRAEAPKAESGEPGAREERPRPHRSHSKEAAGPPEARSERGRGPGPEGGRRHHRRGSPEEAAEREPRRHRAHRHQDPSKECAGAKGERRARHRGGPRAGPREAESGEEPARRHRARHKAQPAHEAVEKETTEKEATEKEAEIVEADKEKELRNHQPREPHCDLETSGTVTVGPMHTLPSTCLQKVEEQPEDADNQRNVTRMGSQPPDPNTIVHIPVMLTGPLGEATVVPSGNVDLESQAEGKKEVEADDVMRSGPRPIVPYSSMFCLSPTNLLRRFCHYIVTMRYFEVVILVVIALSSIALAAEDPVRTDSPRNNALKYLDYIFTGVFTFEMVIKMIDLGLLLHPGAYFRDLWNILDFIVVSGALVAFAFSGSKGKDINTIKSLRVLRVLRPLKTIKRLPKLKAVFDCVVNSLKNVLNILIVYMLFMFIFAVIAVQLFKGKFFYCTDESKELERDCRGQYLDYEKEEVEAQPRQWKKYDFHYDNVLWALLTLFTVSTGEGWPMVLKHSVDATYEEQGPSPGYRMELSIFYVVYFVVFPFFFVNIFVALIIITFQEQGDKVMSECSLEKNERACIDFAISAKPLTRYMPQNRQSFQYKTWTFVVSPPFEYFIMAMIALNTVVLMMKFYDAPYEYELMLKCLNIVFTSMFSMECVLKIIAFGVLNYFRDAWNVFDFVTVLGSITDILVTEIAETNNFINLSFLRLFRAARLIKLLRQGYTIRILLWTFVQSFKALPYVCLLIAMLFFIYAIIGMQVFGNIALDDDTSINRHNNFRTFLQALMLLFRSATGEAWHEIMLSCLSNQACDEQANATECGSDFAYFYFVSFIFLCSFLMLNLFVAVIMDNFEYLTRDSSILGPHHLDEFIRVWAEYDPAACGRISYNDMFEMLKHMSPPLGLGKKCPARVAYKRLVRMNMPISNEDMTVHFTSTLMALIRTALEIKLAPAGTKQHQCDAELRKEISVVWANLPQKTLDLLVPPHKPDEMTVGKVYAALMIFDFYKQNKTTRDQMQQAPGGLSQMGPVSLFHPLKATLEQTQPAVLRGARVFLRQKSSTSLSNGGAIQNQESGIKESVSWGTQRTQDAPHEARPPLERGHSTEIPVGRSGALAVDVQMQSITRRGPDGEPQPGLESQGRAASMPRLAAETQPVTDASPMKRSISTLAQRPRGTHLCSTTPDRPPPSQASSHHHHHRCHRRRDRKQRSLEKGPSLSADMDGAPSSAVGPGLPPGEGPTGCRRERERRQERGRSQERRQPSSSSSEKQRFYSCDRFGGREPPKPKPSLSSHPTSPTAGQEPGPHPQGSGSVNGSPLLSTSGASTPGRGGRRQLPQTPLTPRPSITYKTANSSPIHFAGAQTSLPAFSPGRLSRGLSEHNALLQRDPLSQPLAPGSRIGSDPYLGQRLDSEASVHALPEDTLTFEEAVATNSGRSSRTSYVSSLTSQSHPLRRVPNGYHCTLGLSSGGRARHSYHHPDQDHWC
Sequence of Voltage-gated N-type calcium channel alpha-1B subunit/Amyloid beta A4 precursor protein-binding family A member 1 (Q02410 whole entry): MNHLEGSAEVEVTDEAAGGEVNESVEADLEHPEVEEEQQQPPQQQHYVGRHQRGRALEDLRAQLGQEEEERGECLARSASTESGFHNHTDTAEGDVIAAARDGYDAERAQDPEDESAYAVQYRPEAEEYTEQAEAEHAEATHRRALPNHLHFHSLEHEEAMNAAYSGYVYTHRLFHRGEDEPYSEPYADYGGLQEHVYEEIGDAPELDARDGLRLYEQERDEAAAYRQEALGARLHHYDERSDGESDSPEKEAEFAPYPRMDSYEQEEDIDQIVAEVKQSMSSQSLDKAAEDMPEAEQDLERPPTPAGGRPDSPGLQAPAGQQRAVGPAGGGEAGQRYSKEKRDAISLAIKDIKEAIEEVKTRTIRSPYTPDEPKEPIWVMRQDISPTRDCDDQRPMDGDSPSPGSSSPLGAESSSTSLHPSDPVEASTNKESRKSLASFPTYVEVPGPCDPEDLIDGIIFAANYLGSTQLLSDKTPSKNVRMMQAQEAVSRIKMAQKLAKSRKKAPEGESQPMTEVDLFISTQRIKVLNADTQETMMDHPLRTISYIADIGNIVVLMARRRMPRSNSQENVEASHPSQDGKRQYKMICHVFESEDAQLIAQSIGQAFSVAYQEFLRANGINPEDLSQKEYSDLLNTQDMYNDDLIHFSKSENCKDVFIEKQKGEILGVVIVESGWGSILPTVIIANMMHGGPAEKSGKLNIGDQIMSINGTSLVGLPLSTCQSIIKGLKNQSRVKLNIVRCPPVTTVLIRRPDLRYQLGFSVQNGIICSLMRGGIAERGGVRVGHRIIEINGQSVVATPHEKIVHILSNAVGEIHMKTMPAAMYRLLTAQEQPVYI
Sequence of Casein kinase I isoform gamma-1 (Q9HCP0 whole entry, canonical isoform): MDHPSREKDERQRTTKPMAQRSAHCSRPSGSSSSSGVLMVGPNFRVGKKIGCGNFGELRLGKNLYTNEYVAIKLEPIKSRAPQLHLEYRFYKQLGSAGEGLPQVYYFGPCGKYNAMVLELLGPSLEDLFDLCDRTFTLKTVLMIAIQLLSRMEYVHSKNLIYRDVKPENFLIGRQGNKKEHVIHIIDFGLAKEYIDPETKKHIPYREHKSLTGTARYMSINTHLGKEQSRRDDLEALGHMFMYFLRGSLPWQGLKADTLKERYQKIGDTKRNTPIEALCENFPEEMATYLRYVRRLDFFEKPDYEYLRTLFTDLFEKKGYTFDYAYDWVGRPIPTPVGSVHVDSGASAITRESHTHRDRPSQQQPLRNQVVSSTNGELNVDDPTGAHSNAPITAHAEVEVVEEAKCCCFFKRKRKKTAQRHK

SMILES: O=C1/C(=C\c2cccc(O)c2O)SC(=S)N1Cc1ccccc1
- IC50 [1]: > 100 µM (inactive)
- IC50 [2]: 47.2 µM (active)

SMILES: COc1cccc2c1NC(C(=O)O)C1CC=CC21 (centres undefined)
- IC50 (Large T antigen): 42.5 µM (active)
- IC50 [3]: 15.4 µM (active)
- IC50 [4]: 19.1 µM (active)
- IC50 [5]: 14 µM (active)
- IC50 [6]: 13.2 µM (active)
- IC50 (Bcl-2-related protein A1): 1.1 µM (active)

SMILES: COC(=O)c1c(N)nc2ccccn12
- Ki [10]: > 79.4 µM (inactive)

SMILES: CCc1ccc(S(=O)(=O)/N=C2\C=C(Nc3ccc(O)cc3)C(=O)c3ccccc32)cc1
- IC50 [11]: 1.28 µM (active)
- IC50 (Beta-galactosidase): 41.3 µM (inactive)
- EC50 [12]: 1.16 µM (active)
- IC50 [13]: > 66.6 µM (inactive)

Second part, the compound after the results:

- Ki [7]: 0.398 µM (active)
- Ki [8]: 0.398 µM (active)
- Ki [9]: 1.58 µM (active)
SMILES: COc1c(-c2nc3ccccc3[nH]2)c(O)cc2oc(C)cc(=O)c12

- pKi [14]: 5.6
- Ki (SRSF protein kinase 1): 7.94 µM (active)
- Ki (Ephrin type-A receptor 2): 2.51 µM (active)
- Ki [15]: > 3.16 µM (inactive)
- Ki [16]: > 5.01 µM (inactive)
- Ki [17]: 5.01 µM (active)
- Ki [18]: > 3.98 µM (inactive)
- Ki [19]: 3.98 µM (active)
SMILES: Cc1ccc(F)c(NC(=O)Nc2ccc(-c3cccc4[nH]nc(N)c34)cc2)c1 [LINIFANIB]
